Consider 26 compounds from patent US11472811B2, “Pyrazolotriazolopyrimidine derivatives as A2A receptor antagonist” (BEIGENE, LTD., priority 2018, dated 2022).

The target of the test is human A2A receptor (A2AR) (Homo sapiens (Human), UniProt P29274). Description: Luciferase reporter assay (HEK293-A2AR-luc2p/CRE/Hygro cells). Type of test: cell-based. The note with it: 3 nM CGS21680, 5 h incubation. As to the method: HEK293 cells were maintained in Dulbecco's modified Eagle's medium (DMEM, Gibco) supplemented with 10% fetal bovine serum (FBS, Thermo Scientific), 100 units/mL penicillin (Gibco), and 0.1 mg/mL streptomycin (Gibco) in a humidified 37° C. environment with 5% CO2. Plasmid encoding wild-type human A2A receptor (A2AR) (in pcDNA3.1) was synthesized by Genscript (Nanjing, China). Transfection of the plasmids was performed in 6-well plates with 4×10^5 cells using Lipofectamin 2000 (ThermoFisher Scientific) according to the instruction of the manufacturer. Cell clones that stably express A2AR were established and maintained in the same complete medium as the HEK293 cells in addition of G-418 (Gibico). Expression level of A2AR in each single cell clone was determined using immunoblotting and FACS method. HEK293-A2AR stable cells were then transfected with pGL4.29[luc2P/CRE/Hygro] (Promega) luciferase reporter plasmid for establishing the HEK293-A2AR-luc2p/CRE/Hygro stable cell line.
human A2A receptor (A2AR), sequence (P29274 whole entry): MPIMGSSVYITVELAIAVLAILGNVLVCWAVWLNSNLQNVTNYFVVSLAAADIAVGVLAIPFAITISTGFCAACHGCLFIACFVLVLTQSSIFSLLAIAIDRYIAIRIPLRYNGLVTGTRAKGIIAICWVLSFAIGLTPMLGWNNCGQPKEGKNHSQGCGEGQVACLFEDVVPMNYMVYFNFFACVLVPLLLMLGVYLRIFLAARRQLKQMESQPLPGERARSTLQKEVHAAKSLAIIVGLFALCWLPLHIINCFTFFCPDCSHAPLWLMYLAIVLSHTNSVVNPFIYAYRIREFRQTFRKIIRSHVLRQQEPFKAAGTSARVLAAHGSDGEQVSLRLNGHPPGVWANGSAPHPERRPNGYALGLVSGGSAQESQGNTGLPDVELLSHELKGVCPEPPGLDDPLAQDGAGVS
HEK293-A2AR-luc2p/CRE/Hygro cells were seeded at a density of 5,000 cells/well in DMEM with 1% FBS and 1 U/mL adenosine deaminase (ADA) (Sigma). After 18 h, the cells were treated with 3 nM CGS21680 plus a series dilution of A2AR antagonist, the compounds disclosed herein at the concentration of 0.1˜10000 nM, prepared in DMEM with 1% FBS. After 5 h incubation, the luciferase activity in cells were measured using the Bright-Glo Luciferase Assay System (Promega) according to manufacturer's instructions. The luminescence signal was measured using a PHERAstar FS plate reader (BMG Labtech). […] Maximal luminescence intensity was determined in the presence of 3 nM CGS21680 and was set as 100%. The IC50 value was calculated from a dose dependent inhibition curve across the range of compound concentrations.
Background: Reporter assays use an easily measured gene product as a stand-in for the process of interest.
As to `Nc1nc2c(cnn2C(C(=O)Nc2ccccc2)c2ccccc2)c2nc(-c3ccco3)nn12` (centres unmarked) [Example 3, 2-(5-amino-2-(furan-2-yl)-7H-pyrazolo[4,3-e][1,2,4]triazolo[1,5-c]pyrimidin-7-yl)-N,2-diphenylacetamide], the IC50 (as a rule, the concentration needed to halve the response being measured) stood at 5.2 nM.

On to `CC(C(=O)NCCc1ccccc1)(c1ccccc1)n1ncc2c1nc(N)n1nc(-c3ccco3)nc21` (centres unmarked) [Example 30, 2-(5-amino-2-(furan-2-yl)-7H-pyrazolo[4,3-e][1,2,4]triazolo[1,5-c]pyrimidin-7-yl)-N-phenethyl-2-phenylpropanamide], for which the IC50 amounted to 10.8 nM.

`CN1CCN(CCNC(=O)[C@@](C)(c2ccccc2)n2ncc3c2nc(N)n2nc(-c4ccco4)nc32)CC1` [Example 147B, (R)-2-(5-amino-2-(furan-2-yl)-7H-pyrazolo[4,3-e][1,2,4]triazolo[1,5-c]pyrimidin-7-yl)-N-(2-(4-methylpiperazin-1-yl)ethyl)-2-phenylpropanamide] returned an IC50 of 18.9 nM.

For `Nc1nc2c(cnn2C(C(=O)NC2CCCc3ccccc32)c2ccccc2)c2nc(-c3ccco3)nn12` (centres unmarked) [Example 13, 2-(5-amino-2-(furan-2-yl)-7H-pyrazolo[4,3-e][1,2,4]triazolo[1,5-c]pyrimidin-7-yl)-2-phenyl-N-(1,2,3,4-tetrahydronaphthalen-1-yl)acetamide], half-maximal inhibition (IC50) was put at 8.3 nM.

`CN(C)CCNC(=O)C(C)(c1ccccc1)n1ncc2c1nc(N)n1nc(-c3ccco3)nc21` (centres unmarked) [Example 62, 2-(5-amino-2-(furan-2-yl)-7H-pyrazolo[4,3-e][1,2,4]triazolo[1,5-c]pyrimidin-7-yl)-N-(2-(dimethylamino)ethyl)-2-phenylpropanamide] showed an IC50 of 91.1 nM.

`Cc1nccnc1-c1nc2c3cnn(C(C)(C(=O)NCC4(O)COC4)c4ccccc4)c3nc(N)n2n1` (centres unmarked) [Example 78, 2-(5-amino-2-(3-methylpyrazin-2-yl)-7H-pyrazolo[4,3-e][1,2,4]triazolo[1,5-c]pyrimidin-7-yl)-N-((3-hydroxyoxetan-3-yl)methyl)-2-phenylpropanamide] had an IC50 of 83.3 nM.

In turn, `Nc1nc2c(cnn2C(C(=O)NCc2ccccc2)c2ccccc2)c2nc(-c3ccco3)nn12` (centres unmarked) [Example 1, 2-(5-amino-2-(furan-2-yl)-7H-pyrazolo[4,3-e][1,2,4]triazolo[1,5-c]pyrimidin-7-yl)-N-benzyl-2-phenylacetamide] showed an IC50 of 1.4 nM.

`Cc1cccc(CNC(=O)C(c2ccccc2)n2ncc3c2nc(N)n2nc(-c4ccco4)nc32)c1` (centres unmarked) [Example 23, 2-(5-amino-2-(furan-2-yl)-7H-pyrazolo[4,3-e][1,2,4]triazolo[1,5-c]pyrimidin-7-yl)-N-(3-methylbenzyl)-2-phenylacetamide] came in with an IC50 of 1.9 nM.

`CC(C(=O)N[C@H]1CCC[C@H]1O)(c1ccccc1)n1ncc2c1nc(N)n1nc(-c3ccco3)nc21` (stereo partly drawn) [Example 47, 2-(5-amino-2-(furan-2-yl)-7H-pyrazolo[4,3-e][1,2,4]triazolo[1,5-c]pyrimidin-7-yl)-N-((1S,2R)-2-hydroxycyclopentyl)-2-phenylpropanamide] yielded an IC50 of 12.8 nM.

Compound `CC(C(=O)Nc1ccccn1)(c1ccccc1)n1ncc2c1nc(N)n1nc(-c3ccco3)nc21` (centres unmarked) [Example 77, 2-(5-amino-2-(furan-2-yl)-7H-pyrazolo[4,3-e][1,2,4]triazolo[1,5-c]pyrimidin-7-yl)-2-phenyl-N-(pyridin-2-yl)propanamide] had an IC50 of 15.3 nM.

On to `Nc1nc2c(cnn2C(C(=O)NCCc2ccccc2)c2ccccc2)c2nc(-c3ccco3)nn12` (centres unmarked) [Example 17, 2-(5-amino-2-(furan-2-yl)-7H-pyrazolo[4,3-e][1,2,4]triazolo[1,5-c]pyrimidin-7-yl)-N-phenethyl-2-phenylacetamide], for which it took 3 nM to reach half-maximal inhibition (IC50).

On to `C[C@](C(=O)N[C@H]1C[C@H](O)C1)(c1ccccc1)n1ncc2c1nc(N)n1nc(-c3ccco3)nc21` [Example 102B, (R)-2-(5-amino-2-(furan-2-yl)-7H-pyrazolo[4,3-e][1,2,4]triazolo[1,5-c]pyrimidin-7-yl)-(trans)-N-(3-hydroxycyclobutyl)-2-phenylpropanamide], for which the midpoint of inhibition, the IC50, lay at 10.7 nM.

Take `CC(C(=O)NCc1ccccc1)(c1ccccc1)n1ncc2c1nc(N)n1nc(-c3ccco3)nc21` (centres unmarked) [Example 35, 2-(5-amino-2-(furan-2-yl)-7H-pyrazolo[4,3-e][1,2,4]triazolo[1,5-c]pyrimidin-7-yl)-N-benzyl-2-phenylpropanamide]: 10.7 nM corresponded to half-maximal inhibition (IC50).

On to `CC(Cc1ccccc1)(C(=O)NCC1(O)COC1)n1ncc2c1nc(N)n1nc(-c3ccco3)nc21` (centres unmarked) [Example 132, 2-(5-amino-2-(furan-2-yl)-7H-pyrazolo[4,3-e][1,2,4]triazolo[1,5-c]pyrimidin-7-yl)-N-((3-hydroxyoxetan-3-yl)methyl)-2-methyl-3-phenylpropanamide], for which the IC50 is 15.7 nM.

`CC(C(=O)NCC1COC1)(c1ccccc1)n1ncc2c1nc(N)n1nc(-c3ccco3)nc21` (centres unmarked) [Example 79, 2-(5-amino-2-(furan-2-yl)-7H-pyrazolo[4,3-e][1,2,4]triazolo[1,5-c]pyrimidin-7-yl)-N-(oxetan-3-ylmethyl)-2-phenylpropanamide] came in with an IC50 of 31 nM.

In turn, `Cc1ccc(CNC(=O)C(c2ccccc2)n2ncc3c2nc(N)n2nc(-c4ccco4)nc32)cc1` (centres unmarked) [Example 25, 2-(5-amino-2-(furan-2-yl)-7H-pyrazolo[4,3-e][1,2,4]triazolo[1,5-c]pyrimidin-7-yl)-N-(4-methylbenzyl)-2-phenylacetamide] returned an IC50 of 1.5 nM.

In turn, `C[C@](C(=O)NCc1ncccc1F)(c1ccccc1)n1ncc2c1nc(N)n1nc(-c3ccco3)nc21` [Example 119B, (R)-2-(5-amino-2-(furan-2-yl)-7H-pyrazolo[4,3-e][1,2,4]triazolo[1,5-c]pyrimidin-7-yl)-N-((3-fluoropyridin-2-yl)methyl)-2-phenylpropanamide] showed an IC50 of 2 nM.

Take `C[C@]1(O)CC[C@H](NC(=O)C(c2ccccc2)n2ncc3c2nc(N)n2nc(-c4ccco4)nc32)CC1` (stereo partly drawn) [Example 96, 2-(5-amino-2-(furan-2-yl)-7H-pyrazolo[4,3-e][1,2,4]triazolo[1,5-c]pyrimidin-7-yl)-(cis)-N-(4-hydroxy-4-methylcyclohexyl)-2-phenylacetamide]: the IC50 worked out at 7.5 nM.

In turn, `COc1cccc(CNC(=O)C(C)(c2ccccc2)n2ncc3c2nc(N)n2nc(-c4ccco4)nc32)n1` (centres unmarked) [Example 112, 2-(5-amino-2-(furan-2-yl)-7H-pyrazolo[4,3-e][1,2,4]triazolo[1,5-c]pyrimidin-7-yl)-N-((6-methoxypyridin-2-yl)methyl)-2-phenylpropanamide] registered an IC50 of 4.1 nM.

In turn, `CC(C(=O)N[C@H]1C[C@@](C)(O)C1)(c1ccccc1)n1ncc2c1nc(N)n1nc(-c3ccco3)nc21` (stereo partly drawn) [Example 105, 2-(5-amino-2-(furan-2-yl)-7H-pyrazolo[4,3-e][1,2,4]triazolo[1,5-c]pyrimidin-7-yl)-N-((1S,3S)-3-hydroxy-3-methylcyclobutyl)-2-phenylpropanamide] showed an IC50 of 10.7 nM.

Turning to `CC(C(=O)NCC1CCCO1)(c1ccccc1)n1ncc2c1nc(N)n1nc(-c3ccco3)nc21` (centres unmarked) [Example 49, 2-(5-amino-2-(furan-2-yl)-7H-pyrazolo[4,3-e][1,2,4]triazolo[1,5-c]pyrimidin-7-yl)-2-phenyl-N-((tetrahydrofuran-2-yl)methyl)propanamide], the IC50 was found to be 3.7 nM.

As for `CC(C(=O)NC[C@@H]1CCOC1)(c1ccccc1)n1ncc2c1nc(N)n1nc(-c3ccco3)nc21` (stereo partly drawn) [Example 53, 2-(5-amino-2-(furan-2-yl)-7H-pyrazolo[4,3-e][1,2,4]triazolo[1,5-c]pyrimidin-7-yl)-2-phenyl-N—(((S)-tetrahydrofuran-3-yl)methyl)propanamide], inhibition was half-maximal at 12.5 nM (IC50).

`CC(C(=O)N[C@H]1CCCOC1)(c1ccccc1)n1ncc2c1nc(N)n1nc(-c3ccco3)nc21` (stereo partly drawn) [Example 59, 2-(5-amino-2-(furan-2-yl)-7H-pyrazolo[4,3-e][1,2,4]triazolo[1,5-c]pyrimidin-7-yl)-2-phenyl-N—((S)-tetrahydro-2H-pyran-3-yl)propanamide] registered an IC50 of 11.1 nM.

`CC(C(=O)Nc1ccccc1)(c1ccccc1)n1ncc2c1nc(N)n1nc(-c3ccco3)nc21` (centres unmarked) [Example 34, 2-(5-amino-2-(furan-2-yl)-7H-pyrazolo[4,3-e][1,2,4]triazolo[1,5-c]pyrimidin-7-yl)-N,2-diphenylpropanamide] had an IC50 of 9.5 nM.

For `Cc1cccc(CCNC(=O)[C@@](C)(c2ccccc2)n2ncc3c2nc(N)n2nc(-c4ccco4)nc32)n1` [Example 150B, (R)-2-(5-amino-2-(furan-2-yl)-7H-pyrazolo[4,3-e][1,2,4]triazolo[1,5-c]pyrimidin-7-yl)-N-(2-(6-methylpyridin-2-yl)ethyl)-2-phenylpropanamide], the IC50 came out at 26.5 nM.

For `CC(C(=O)NC1CCC(O)C1)(c1ccccc1)n1ncc2c1nc(N)n1nc(-c3ccco3)nc21` (centres unmarked) [Example 36, 2-(5-amino-2-(furan-2-yl)-7H-pyrazolo[4,3-e][1,2,4]triazolo[1,5-c]pyrimidin-7-yl)-N-(3-hydroxycyclopentyl)-2-phenylpropanamide], the IC50 worked out at 12.9 nM.
